Patent US20250255867A1 (Kadmon Corporation, LLC, priority 2022, published 2025)

Test system: patients with cGVHD
Assay: Example 1: pulmonary function (percent predicted FEV1, FVC, DLco, TLC, RV) change from baseline
Assay type: in vivo, human
Experimental: Change From Baseline in Percent Predicted Forced Expiratory Volume in 1 Second (FEV1) at Each Specified Time Points. FEV1 was the volume of air exhaled from the lungs in the first second of a forced expiration as measured by spirometer. Baseline value was defined as valid and last non-missing value obtained within 28 days prior to participant receiving first study medication. EOT visit was performed within 3 days after the participant's last dose of study drug. […] Analysis was performed on mITT population. Here, ‘number analyzed’=participants with available data for each specified category. Here, ‘0’ in the number analyzed field signifies that none of the participants were available for the analysis at the specified time points.
Change From Baseline in Percent Predicted Forced Vital Capacity (FVC) at Each Specified Time Points. FVC was the total amount of air (in liters) exhaled from the lungs during the lung function test measured by spirometer which assessed the change in lung function related to the disease status. Baseline value was defined as valid and last non-missing value obtained within 28 days prior to participant receiving first study medication. EOT visit was performed within 3 days after the participant's last dose of study drug. […] Analysis was performed on mITT population. Here, ‘number analyzed’=participants with available data for each specified category. Here, ‘0’ in the number analyzed field signifies that none of the participants were available for the analysis at the specified time points.
Change From Baseline in Percent Predicted Hemoglobin (HGB) Corrected Diffusing Capacity of Lung for Carbon Monoxide (DLco) at Each Specified Time Points. DLco is a measurement of the ability of the lungs to transfer gases from the air to the blood. Change from baseline in diffusing capacity of the lung for carbon monoxide (percent predicted hemoglobin level corrected) was reported for this measure. Baseline value was defined as valid and last non-missing value obtained within 28 days prior to participant receiving first study medication. EOT visit was performed within 3 days after the participant's last dose of study drug. […] Analysis was performed on mITT population. Here, ‘number analyzed’=participants with available data for each specified category. Here, ‘0’ in the number analyzed field signifies that none of the participants were available for the analysis at the specified time points.
Change From Baseline in Percent Predicted Total Lung Capacity (TLC) at Each Specified Time Points. TLC is the volume of air in the lungs upon the maximum effort of inspiration. Baseline value was defined as valid and last non-missing value obtained within 28 days prior to participant receiving first study medication. EOT visit was performed within 3 days after the participant's last dose of study drug. […] Analysis was performed on mITT population. Here, ‘number analyzed’=participants with available data for each specified category.

CC(C)NC(=O)COc1cccc(-c2nc(Nc3ccc4[nH]ncc4c3)c3ccccc3n2)c1 [Belumosudil, 2-{3-[4-(1H-indazol-5-ylamino)-2-quinazolinyl]phenoxy}-N-(propan-2-yl) acetamide]
Change From Baseline in Percent Predicted Residual Volume (RV), Mean (Standard Deviation) (Cohort 2: 200 mg BID, Cycle 13, Day 1, n=4): −27.0 (35.6) percent predicted RV | Change From Baseline in Percent Predicted Residual Volume (RV), Mean (Standard Deviation) (Cohort 2: 200 mg BID, Cycle 14, Day 1, n=1): −31.0 (—) percent predicted RV | Change From Baseline in Percent Predicted Residual Volume (RV), Mean (Standard Deviation) (Cohort 2: 200 mg BID, Cycle 15, Day 1, n=3): −0.7 (18.1) percent predicted RV | Change From Baseline in Percent Predicted Residual Volume (RV), Mean (Standard Deviation) (Cohort 2: 200 mg BID, Cycle 16, Day 1, n=2): −36.5 (13.4) percent predicted RV | Change From Baseline in Percent Predicted Residual Volume (RV), Mean (Standard Deviation) (Cohort 2: 200 mg BID, Cycle 17, Day 1, n=3): −47.3 (25.1) percent predicted RV | Change From Baseline in Percent Predicted Residual Volume (RV), Mean (Standard Deviation) (Cohort 2: 200 mg BID, Cycle 18, Day 1, n=2): −42.0 (0.0) percent predicted RV | Change From Baseline in Percent Predicted Residual Volume (RV), Mean (Standard Deviation) (Cohort 2: 200 mg BID, Cycle 19, Day 1, n=3): −19.7 (18.0) percent predicted RV | Change From Baseline in Percent Predicted Residual Volume (RV), Mean (Standard Deviation) (Cohort 2: 200 mg BID, Cycle 20, Day 1, n=2): −7.5 (37.5) percent predicted RV | Change From Baseline in Percent Predicted Residual Volume (RV), Mean (Standard Deviation) (Cohort 2: 200 mg BID, Cycle 21, Day 1, n=1): −44.0 (—) percent predicted RV | Change From Baseline in Percent Predicted Residual Volume (RV), Mean (Standard Deviation) (Cohort 2: 200 mg BID, Cycle 22, Day 1, n=2): −33.0 (19.8) percent predicted RV | Change From Baseline in Percent Predicted Residual Volume (RV), Mean (Standard Deviation) (Cohort 2: 200 mg BID, Cycle 23, Day 1, n=1): −72.0 (—) percent predicted RV | Change From Baseline in Percent Predicted Residual Volume (RV), Mean (Standard Deviation) (Cohort 2: 200 mg BID, Cycle 24, Day 1, n=1): −17.0 (—) percent predicted RV | Change From Baseline in Percent Predicted Residual Volume (RV), Mean (Standard Deviation) (Cohort 2: 200 mg BID, Cycle 25, Day 1, n=2): −34.0 (31.1) percent predicted RV | Change From Baseline in Percent Predicted Residual Volume (RV), Mean (Standard Deviation) (Cohort 2: 200 mg BID, Cycle 27, Day 1, n=2): −39.5 (20.5) percent predicted RV | Change From Baseline in Percent Predicted Residual Volume (RV), Mean (Standard Deviation) (Cohort 2: 200 mg BID, Cycle 29, Day 1, n=1): −13.0 (—) percent predicted RV | Change From Baseline in Percent Predicted Residual Volume (RV), Mean (Standard Deviation) (Cohort 2: 200 mg BID, Cycle 37, Day 1, n=1): −70.0 (—) percent predicted RV | Change From Baseline in Percent Predicted Residual Volume (RV), Mean (Standard Deviation) (Cohort 2: 200 mg BID, Cycle 39, Day 1, n=2): −43.0 (42.4) percent predicted RV | Change From Baseline in Percent Predicted Residual Volume (RV), Mean (Standard Deviation) (Cohort 2: 200 mg BID, Cycle 43, Day 1, n=1): −26.0 (—) percent predicted RV | Change From Baseline in Percent Predicted Residual Volume (RV), Mean (Standard Deviation) (Cohort 2: 200 mg BID, EOT, n=8): 10.6 (34.9) percent predicted RV | Change From Baseline in Percent Predicted Residual Volume (RV), Mean (Standard Deviation) (Cohort 3: 400 mg QD, Cycle 2, Day 1, n=4): −18.0 (30.1) percent predicted RV | Change From Baseline in Percent Predicted Residual Volume (RV), Mean (Standard Deviation) (Cohort 3: 400 mg QD, Cycle 3, Day 1, n=12): 9.0 (34.4) percent predicted RV | Change From Baseline in Percent Predicted Residual Volume (RV), Mean (Standard Deviation) (Cohort 3: 400 mg QD, Cycle 4, Day 1, n=6): 17.8 (29.0) percent predicted RV | Change From Baseline in Percent Predicted Residual Volume (RV), Mean (Standard Deviation) (Cohort 3: 400 mg QD, Cycle 5, Day 1, n=10): −3.7 (29.8) percent predicted RV | Change From Baseline in Percent Predicted Residual Volume (RV), Mean (Standard Deviation) (Cohort 3: 400 mg QD, Cycle 6, Day 1, n=7): −10.9 (37.5) percent predicted RV | Change From Baseline in Percent Predicted Residual Volume (RV), Mean (Standard Deviation) (Cohort 3: 400 mg QD, Cycle 7, Day 1, n=12): −7.5 (33.0) percent predicted RV | Change From Baseline in Percent Predicted Residual Volume (RV), Mean (Standard Deviation) (Cohort 3: 400 mg QD, Cycle 8, Day 1, n=6): 2.5 (39.7) percent predicted RV | Change From Baseline in Percent Predicted Residual Volume (RV), Mean (Standard Deviation) (Cohort 3: 400 mg QD, Cycle 9, Day 1, n=10): 0.1 (35.6) percent predicted RV | Change From Baseline in Percent Predicted Residual Volume (RV), Mean (Standard Deviation) (Cohort 3: 400 mg QD, Cycle 10, Day 1, n=5): 1.4 (38.2) percent predicted RV | Change From Baseline in Percent Predicted Residual Volume (RV), Mean (Standard Deviation) (Cohort 3: 400 mg QD, Cycle 11, Day 1, n=8): 5.4 (38.0) percent predicted RV | Change From Baseline in Percent Predicted Residual Volume (RV), Mean (Standard Deviation) (Cohort 3: 400 mg QD, Cycle 12, Day 1, n=6): −22.2 (49.9) percent predicted RV | Change From Baseline in Percent Predicted Residual Volume (RV), Mean (Standard Deviation) (Cohort 3: 400 mg QD, Cycle 13, Day 1, n=8): 0.3 (32.6) percent predicted RV | Change From Baseline in Percent Predicted Residual Volume (RV), Mean (Standard Deviation) (Cohort 3: 400 mg QD, Cycle 14, Day 1, n=6): −6.5 (36.3) percent predicted RV | Change From Baseline in Percent Predicted Residual Volume (RV), Mean (Standard Deviation) (Cohort 3: 400 mg QD, Cycle 15, Day 1, n=7): −16.7 (22.3) percent predicted RV | Change From Baseline in Percent Predicted Residual Volume (RV), Mean (Standard Deviation) (Cohort 3: 400 mg QD, Cycle 16, Day 1, n=4): −27.5 (31.9) percent predicted RV | Change From Baseline in Percent Predicted Residual Volume (RV), Mean (Standard Deviation) (Cohort 3: 400 mg QD, Cycle 17, Day 1, n=7): −39.1 (26.2) percent predicted RV | Change From Baseline in Percent Predicted Residual Volume (RV), Mean (Standard Deviation) (Cohort 3: 400 mg QD, Cycle 18, Day 1, n=3): −7.3 (33.7) percent predicted RV | Change From Baseline in Percent Predicted Residual Volume (RV), Mean (Standard Deviation) (Cohort 3: 400 mg QD, Cycle 19, Day 1, n=4): −23.5 (18.7) percent predicted RV | Change From Baseline in Percent Predicted Residual Volume (RV), Mean (Standard Deviation) (Cohort 3: 400 mg QD, Cycle 20, Day 1, n=3): −22.0 (44.3) percent predicted RV | Change From Baseline in Percent Predicted Residual Volume (RV), Mean (Standard Deviation) (Cohort 3: 400 mg QD, Cycle 21, Day 1, n=5): −30.2 (51.2) percent predicted RV | Change From Baseline in Percent Predicted Residual Volume (RV), Mean (Standard Deviation) (Cohort 3: 400 mg QD, Cycle 22, Day 1, n=2): −41.0 (46.7) percent predicted RV | Change From Baseline in Percent Predicted Residual Volume (RV), Mean (Standard Deviation) (Cohort 3: 400 mg QD, Cycle 23, Day 1, n=4): 1.5 (44.8) percent predicted RV | Change From Baseline in Percent Predicted Residual Volume (RV), Mean (Standard Deviation) (Cohort 3: 400 mg QD, Cycle 24, Day 1, n=1): −78.0 (—) percent predicted RV | Change From Baseline in Percent Predicted Residual Volume (RV), Mean (Standard Deviation) (Cohort 3: 400 mg QD, Cycle 25, Day 1, n=3): −23.3 (56.0) percent predicted RV | Change From Baseline in Percent Predicted Residual Volume (RV), Mean (Standard Deviation) (Cohort 3: 400 mg QD, Cycle 27, Day 1, n=2): −41.0 (28.3) percent predicted RV | Change From Baseline in Percent Predicted Residual Volume (RV), Mean (Standard Deviation) (Cohort 3: 400 mg QD, Cycle 29, Day 1, n=2): 17.5 (40.3) percent predicted RV | Change From Baseline in Percent Predicted Residual Volume (RV), Mean (Standard Deviation) (Cohort 3: 400 mg QD, Cycle 39, Day 1, n=1): 81.0 (—) percent predicted RV | Change From Baseline in Percent Predicted Residual Volume (RV), Mean (Standard Deviation) (Cohort 3: 400 mg QD, Cycle 43, Day 1, n=1): 75.0 (—) percent predicted RV | Change From Baseline in Percent Predicted Residual Volume (RV), Mean (Standard Deviation) (Cohort 3: 400 mg QD, Cycle 47, Day 1, n=1): 87.0 (—) percent predicted RV | Change From Baseline in Percent Predicted Residual Volume (RV), Mean (Standard Deviation) (Cohort 3: 400 mg QD, Cycle 49, Day 1, n=1): −5.0 (—) percent predicted RV | Change From Baseline in Percent Predicted Residual Volume (RV), Mean (Standard Deviation) (Cohort 3: 400 mg QD, EOT, n=8): −18.5 (32.6) percent predicted RV
